This note sets out measurements from patent US20250140406A1, “CLASSIFYING TUMORS AND PREDICTING RESPONSIVENESS” (Oncocyte Corporation, priority 2022, published 2025).

For assay [1], the system named is cancer cell lines classified IM, MSL, M. Kind of assay: PRISM screen compound sensitivity correlated with IM, MSL and M subtype of cell lines (101 gene signature). The note with it: for TNBCType train: 101 gene signature. Type of assay: cell-based.
Assay [2] concerns cancer cell lines, DetermaIO classes. Kind of assay: Association of PRISM compound sensitivity with DetermaIO (DTIO) cell line classes. Type of assay: cell-based.
The mark [3] stands for this setting: correlation of PRISM compound sensitivity with IM subtype correlation, test cell set (188 cell lines).
[4] abbreviates: correlation of PRISM compound sensitivity with M subtype correlation, test cell set (188 cell lines).
Setting [5] is: correlation of PRISM compound sensitivity with MSL subtype correlation, test cell set (188 cell lines).
Setting [6] is: subtype (IM, MSL or M) with which compound sensitivity is negatively correlated, training cell set (371 cell lines).
Where [7] appears, read: correlation of PRISM compound sensitivity with DTIO, test cell set.
Where [8] appears, read: correlation of PRISM compound sensitivity with DTIO, training cell set.
[9] abbreviates: correlation of PRISM compound sensitivity with IM subtype correlation, test cell set.
Setting [10] is: correlation of PRISM compound sensitivity with M subtype correlation, test cell set.
[11] abbreviates: correlation of PRISM compound sensitivity with MSL subtype correlation, test cell set.
Where [12] appears, read: subtype (IM, MSL or M) with which PRISM compound sensitivity is negatively correlated, training cell set.
Setting [13] is: subtype (IM, MSL or M) assigned to the compound by negative correlation of PRISM sensitivity with subtype, training cell set (371 cell lines).
Where [14] appears, read: correlation of PRISM compound sensitivity with DTIO (DetermaIO), test cell set (188 cell lines).
Where [15] appears, read: correlation of PRISM compound sensitivity with DTIO (DetermaIO), training cell set (371 cell lines).

Structures are written as SMILES. Like-named read-outs stand apart in the source and are kept apart here.

Turning to `C[C@]12CC[C@H]3[C@@H](CC[C@]4(O)C[C@@H](O)CC[C@]34C=O)[C@@]1(O)CC[C@@H]2C1=CC(=O)OC1` [k-strophanthidin], the “IM Corr test” value in assay [1] (setting [3]) was −0.06974. Besides, the “M Corr test” value in assay [1] (setting [4]) is listed as −0.03165. Further, in assay [1] (setting [5]), the “MSL Corr test” value is recorded as −0.1099. In addition, the TNBCType train result in assay [1] (setting [6]) is recorded as “MSL”. In addition, the “DTIO Corr test” value in assay [2] (setting [7]) is listed as −0.03307. In assay [2] (setting [8]), the “DTIO Corr train” value was −0.01124.

`O=C(CCn1cnc2c(=O)[nH]cnc21)Nc1ccc(C(=O)O)cc1` [leteprinim]: the “IM Corr test” value in assay [1] (setting [9]) is 0.08575. In addition, the “M Corr test” value in assay [1] (setting [10]) is −0.1262. In assay [1] (setting [11]), the “MSL Corr test” value was −0.09795. In assay [1] (setting [12]), the TNBCType train result is given as “MSL”. The “DTIO Corr test” value in assay [2] (setting [7]) was 0.02507. In addition, the “DTIO Corr train” value in assay [2] (setting [8]) was −0.08293.

For `N=C(N)NC(=N)Nc1cccc(Cl)c1` [m-Chlorophenylbiguanide], in assay [1] (setting [9]), the “IM Corr test” value is −0.148. Further, in assay [1] (setting [10]), the “M Corr test” value worked out at 0.08655. Further, the “MSL Corr test” value in assay [1] (setting [11]) was determined as 0.1129. In addition, in assay [2] (setting [7]), the “DTIO Corr test” value is on record as −0.0968. Further, in assay [2] (setting [8]), the “DTIO Corr train” value is −0.09639.

On to `O=C(O)[C@H](O)[C@@H](O)[C@H](O[C@@H]1O[C@H](CO)[C@H](O)[C@H](O)[C@H]1O)[C@H](O)CO` [maltobionic-acid], for which, in assay [1] (setting [3]), the “IM Corr test” value is 0.1078. Besides, the “M Corr test” value in assay [1] (setting [4]) was −0.08169. The “MSL Corr test” value in assay [1] (setting [5]) was 0.03716. In assay [2] (setting [7]), the “DTIO Corr test” value is reported as 0.13. In addition, the “DTIO Corr train” value in assay [2] (setting [8]) came out at 0.09859.

Take `CCOC(=O)c1c(C)n(C)c2ccc(O)cc12` [mecarbinate]: the “IM Corr test” value in assay [1] (setting [9]) was −0.08712. Also, the “M Corr test” value in assay [1] (setting [10]) was 0.04238. Also, the “MSL Corr test” value in assay [1] (setting [11]) was −0.08851. Also, in assay [2] (setting [7]), the “DTIO Corr test” value is on record as −0.09259. Besides, the “DTIO Corr train” value in assay [2] (setting [8]) was −0.07862.

On to `CC(C)(CCCCCCCCCCC(C)(C)CC(=O)O)CC(=O)O` [medica-16], for which, in assay [1] (setting [3]), the “IM Corr test” value is on record as −0.06152. Also, the “M Corr test” value in assay [1] (setting [4]) turned out to be 0.01613. For the same compound, the “MSL Corr test” value in assay [1] (setting [5]) was −0.1086. In addition, in assay [1] (setting [13]), the TNBCType train result is reported as “MSL”. The “DTIO Corr test” value in assay [2] (setting [14]) is 0.004343. Besides, in assay [2] (setting [15]), the “DTIO Corr train” value was −0.05017.

In the case of `[O-][n+]1cccc(CO)c1` [mepiroxol], the “IM Corr test” value in assay [1] (setting [3]) is −0.07855. Moreover, in assay [1] (setting [4]), the “M Corr test” value stood at 0.0253. Besides, the “MSL Corr test” value in assay [1] (setting [5]) amounted to 0.01789. In addition, in assay [2] (setting [14]), the “DTIO Corr test” value is listed as −0.08258. The “DTIO Corr train” value in assay [2] (setting [15]) is given as −0.1082.

With `CC(C)(C)NCc1cc(Nc2ccnc3cc(Cl)ccc23)c2c(c1O)CCCC2.O=P(O)(O)O.O=P(O)(O)O` [naphthoquine-phosphate], the “IM Corr test” value in assay [1] (setting [3]) is listed as −0.01598. Besides, in assay [1] (setting [4]), the “M Corr test” value amounted to 0.03443. For the same compound, the “MSL Corr test” value in assay [1] (setting [5]) is given as −0.02275. Moreover, the TNBCType train entry in assay [1] (setting [6]) is “MSL”. Also, in assay [2] (setting [7]), the “DTIO Corr test” value is recorded as 0.04517. For the same compound, the “DTIO Corr train” value in assay [2] (setting [8]) amounted to 0.03212.

On to `O=[N+]([O-])c1ccc([As](=O)(O)O)cc1` [nitarsone], for which the “IM Corr test” value in assay [1] (setting [3]) was −0.01836. Further, the “M Corr test” value in assay [1] (setting [4]) is given as 0.02346. The “MSL Corr test” value in assay [1] (setting [5]) is −0.02358. Moreover, the TNBCType train entry in assay [1] (setting [13]) is reported as “MSL”. The “DTIO Corr test” value in assay [2] (setting [14]) is −0.04129. In addition, the “DTIO Corr train” value in assay [2] (setting [15]) was determined as 0.03389.

Regarding `C#C[C@]1(OC(=O)CCCCCC)CC[C@H]2[C@@H]3CCC4=CC(=O)CC[C@@H]4[C@H]3CC[C@@]21C` [norethisterone-enanthate], in assay [1], the “IM Corr test” value is −0.05873, the “M Corr test” value amounted to 0.01774 and the “MSL Corr test” value came out at 0.1042. In assay [2], the “DTIO Corr test” value is given as 0.009756 and the “DTIO Corr train” value was −0.1312.

`COc1ccc(C2=N[C@@H](c3ccc(Cl)cc3)[C@@H](c3ccc(Cl)cc3)N2C(=O)N2CCNC(=O)C2)c(OC(C)C)c1` [nutlin-3]: in assay [1] (setting [3]), the “IM Corr test” value worked out at 0.06852. Moreover, the “M Corr test” value in assay [1] (setting [4]) is listed as −0.07413. The “MSL Corr test” value in assay [1] (setting [5]) was 0.03536. The “DTIO Corr test” value in assay [2] (setting [7]) was 0.1503. The “DTIO Corr train” value in assay [2] (setting [8]) was 0.1606.

With `C[N+](C)(C)CC#CCN1CCCC1=O` [oxotremorine-m], the “IM Corr test” value in assay [1] (setting [3]) is −0.08895. In addition, the “M Corr test” value in assay [1] (setting [4]) was found to be 0.05992. Besides, in assay [1] (setting [5]), the “MSL Corr test” value is listed as 0.09728. Also, in assay [2] (setting [7]), the “DTIO Corr test” value is given as −0.1128. In assay [2] (setting [8]), the “DTIO Corr train” value was −0.0669.

For the compound `CC[C@H](C)[C@@H]1NC(=O)[C@H](Cc2ccc(O)cc2)NC(=O)[C@@H](N)CSSC[C@@H](C(=O)N2CCC[C@H]2C(=O)N[C@@H](CC(C)C)C(=O)NCC(N)=O)NC(=O)[C@H](CC(N)=O)NC(=O)[C@H](CCC(N)=O)NC1=O` [oxytocin], the “IM Corr test” value in assay [1] (setting [9]) was −0.06688. In assay [1] (setting [10]), the “M Corr test” value was 0.01789. Also, the “MSL Corr test” value in assay [1] (setting [11]) is −0.03975. In addition, in assay [1] (setting [12]), the TNBCType train result is on record as “MSL”. Moreover, in assay [2] (setting [7]), the “DTIO Corr test” value is on record as −0.07667. For the same compound, the “DTIO Corr train” value in assay [2] (setting [8]) amounted to 0.04167.

On to `CN1C(=O)C(N2CCCCC2)S/C1=C\C(=O)O` (stereo not shown) [ozolinone], for which, in assay [1] (setting [3]), the “IM Corr test” value is recorded as −0.1322. The “M Corr test” value in assay [1] (setting [4]) is reported as −0.01029. In assay [1] (setting [5]), the “MSL Corr test” value is reported as −0.06039. In addition, the TNBCType train result in assay [1] (setting [6]) was “MSL”. In addition, in assay [2] (setting [7]), the “DTIO Corr test” value is reported as −0.09683. Also, in assay [2] (setting [8]), the “DTIO Corr train” value stood at 0.04306.

Regarding `COc1cc(/C=C/c2ccc(O)cc2)cc(OC)c1` [pterostilbene], in assay [1], the “IM Corr test” value is recorded as −0.08513, the “M Corr test” value is 0.06063 and the “MSL Corr test” value is recorded as −0.05713. In addition, in assay [2], the “DTIO Corr test” value is listed as −0.06647 and the “DTIO Corr train” value is given as −0.0588.

Regarding `CNC(=O)c1cnn(-c2nc(N)c3ncn([C@@H]4O[C@H](CO)[C@@H](O)[C@H]4O)c3n2)c1` [regadenoson], the “IM Corr test” value in assay [1] (setting [3]) is given as −0.08832. The “M Corr test” value in assay [1] (setting [4]) was 0.02954. Further, the “MSL Corr test” value in assay [1] (setting [5]) is listed as −0.05759. In addition, the “DTIO Corr test” value in assay [2] (setting [7]) was −0.1015. Moreover, the “DTIO Corr train” value in assay [2] (setting [8]) is reported as −0.1586.

With `COC(=O)CC[C@@H]1N=C(c2ccccn2)c2cc(Br)ccc2-n2c(C)cnc21` [remimazolam], the “IM Corr test” value in assay [1] (setting [3]) is 0.03785. Further, the “M Corr test” value in assay [1] (setting [4]) is −0.0431. Further, the “MSL Corr test” value in assay [1] (setting [5]) is given as −0.1059. Also, in assay [1] (setting [13]), the TNBCType train result is “MSL”. For the same compound, the “DTIO Corr test” value in assay [2] (setting [14]) is listed as −0.03395. The “DTIO Corr train” value in assay [2] (setting [15]) was −0.02892.

Regarding `COc1ccc([C@H]2CNC(=O)C2)cc1OC1CCCC1` [rolipram-S(+)], the “IM Corr test” value in assay [1] (setting [3]) is on record as −0.03939. Also, in assay [1] (setting [4]), the “M Corr test” value is −0.06383. In addition, the “MSL Corr test” value in assay [1] (setting [5]) is −0.06426. Also, the “DTIO Corr test” value in assay [2] (setting [14]) is reported as −0.07222. Further, the “DTIO Corr train” value in assay [2] (setting [15]) is given as −0.1043.

Consider `C=C1CC[C@H](O)C/C1=C/C=C1\CCC[C@]2(C)[C@@H]([C@H](C)CC[C@@H](O)C(C)(C)O)CC[C@@H]12` [secalciferol], for which, in assay [1] (setting [3]), the “IM Corr test” value is listed as −0.1254. In assay [1] (setting [4]), the “M Corr test” value is 0.07866. For the same compound, in assay [1] (setting [5]), the “MSL Corr test” value was −0.05502. Moreover, in assay [2] (setting [7]), the “DTIO Corr test” value is given as −0.09515. Further, the “DTIO Corr train” value in assay [2] (setting [8]) is reported as −0.06151.

Regarding `C/C(=N\NC(=N)N)c1cc(NC(=O)CCCCCCCCC(=O)Nc2cc(/C(C)=N/NC(=N)N)cc(/C(C)=N/NC(=N)N)c2)cc(/C(C)=N/NC(=N)N)c1` [semapimod], the “IM Corr test” value in assay [1] (setting [9]) amounted to 0.1267. Moreover, in assay [1] (setting [10]), the “M Corr test” value was −0.09225. The “MSL Corr test” value in assay [1] (setting [11]) is recorded as −0.0812. For the same compound, the TNBCType train result in assay [1] (setting [12]) is listed as “MSL”. The “DTIO Corr test” value in assay [2] (setting [7]) was 0.207. Further, the “DTIO Corr train” value in assay [2] (setting [8]) is 0.01264.
